Reference: ChEMBL document CHEMBL1201861, “Genomics of Drug Sensitity in Cancer screening data, Wellcome Trust Sanger Institute”

What was measured:
Assay in all cases: cells
Ca9-22 = type: functional, cell-based; conditions: Homo sapiens;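 further: growth inhibition of Ca9-22 cells, read out with a cell viability assay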
Description: SANGER: Inhibition of human Ca9-22 cell growth in a cell viability assay.

D-336MG = type: functional, cell-based, Homo sapiens; conditions: Homo sapiens, D-336MG
Description: SANGER: Inhibition of human D-336MG cell growth in a cell viability assay.

EGI-1 = type: functional, cell-based; conditions: Homo sapiens;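 further: cell viability readout used to gauge growth inhibition of EGI-1 cells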
Description: SANGER: Inhibition of human EGI-1 cell growth in a cell viability assay.

G-401 = type: functional, cell-based; conditions: Homo sapiens
Description: SANGER: Inhibition of human G-401 cell growth in a cell viability assay.

G-402 = type: functional, cell-based; conditions: Homo sapiens
Description: SANGER: Inhibition of human G-402 cell growth in a cell viability assay.

GAMG = type: functional, cell-based; conditions: Homo sapiens;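 further: cell growth inhibition measured by a viability assay in the GAMG human cell line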
Description: SANGER: Inhibition of human GAMG cell growth in a cell viability assay.

GP5d = type: functional, cell-based; conditions: Homo sapiens;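 further: growth inhibition of human GP5d cells, read out with a cell viability assay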
Description: SANGER: Inhibition of human GP5d cell growth in a cell viability assay.

HCC1806 = type: functional, cell-based; conditions: Homo sapiens;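 further: growth inhibition of the cancer cell line, determined with a cell viability assay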
Description: SANGER: Inhibition of human HCC1806 cell growth in a cell viability assay.

HCC38 = type: functional, cell-based; conditions: Homo sapiens;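 further: cell viability assay on the human HCC38 cell line, with IC50 marking the concentration that inhibits cell growth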
Description: SANGER: Inhibition of human HCC38 cell growth in a cell viability assay.

HCC70 = type: functional, cell-based; conditions: Homo sapiens;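 further: cell viability assay measuring how strongly the compound suppresses proliferation of HCC70 cells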
Description: SANGER: Inhibition of human HCC70 cell growth in a cell viability assay.

HEC-1 = type: functional, cell-based; conditions: Homo sapiens;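 further: growth inhibition of the cell line, read out with a cell viability assay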
Description: SANGER: Inhibition of human HEC-1 cell growth in a cell viability assay.

HPAF-II = type: functional, cell-based; conditions: Homo sapiens;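 further: growth inhibition of HPAF-II cells, read out with a cell viability assay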
Description: SANGER: Inhibition of human HPAF-II cell growth in a cell viability assay.

HT-3 = type: functional, cell-based; conditions: Homo sapiens;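 further: growth inhibition measured with a cell viability readout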
Description: SANGER: Inhibition of human HT-3 cell growth in a cell viability assay.

HT55 = type: functional, cell-based; conditions: Homo sapiens;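 further: cell viability readout measuring growth inhibition of human HT55 cells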
Description: SANGER: Inhibition of human HT55 cell growth in a cell viability assay.

HTC-C3 = type: functional, cell-based; conditions: Homo sapiens;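 further: inhibition of cell growth, read out with a cell viability assay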
Description: SANGER: Inhibition of human HTC-C3 cell growth in a cell viability assay.

JEG-3 = type: functional, cell-based; conditions: Homo sapiens;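 further: growth inhibition of human JEG-3 cells, read out with a cell viability assay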
Description: SANGER: Inhibition of human JEG-3 cell growth in a cell viability assay.

KP-N-YN = type: functional, cell-based; conditions: Homo sapiens;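 further: growth inhibition of KP-N-YN cells, read out with a cell viability assay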
Description: SANGER: Inhibition of human KP-N-YN cell growth in a cell viability assay.

KYSE-70 cell line = type: functional, cell-based; conditions: Homo sapiens;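 further: cell viability assay read-out, with IC50 expressing suppression of KYSE-70 cell growth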
Description: SANGER: Inhibition of human KYSE-70 cell growth in a cell viability assay.

LCLC-103H cell line = type: functional, cell-based; conditions: Homo sapiens
Description: SANGER: Inhibition of human LCLC-103H cell growth in a cell viability assay.

LK-2 = type: functional, cell-based; conditions: Homo sapiens;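 further: growth inhibition of LK-2 cells, read out with a viability assay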
Description: SANGER: Inhibition of human LK-2 cell growth in a cell viability assay.

M059J = type: functional, cell-based; conditions: Homo sapiens;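 further: growth inhibition of M059J cells, read out with a cell viability assay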
Description: SANGER: Inhibition of human M059J cell growth in a cell viability assay.

MDA-MB-361 = type: functional, cell-based; conditions: Homo sapiens
MEL-HO = type: functional, cell-based; conditions: Homo sapiens
Description: SANGER: Inhibition of human MEL-HO cell growth in a cell viability assay.

MG-63 = type: functional, cell-based; conditions: Homo sapiens;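 further: growth inhibition of human MG-63 cells, read out with a cell viability assay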
Description: SANGER: Inhibition of human MG-63 cell growth in a cell viability assay.

MKN-28 = type: functional, cell-based; conditions: Homo sapiens;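 further: cell viability assay read-out, IC50 reflects suppression of growth of human MKN-28 cells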
Description: SANGER: Inhibition of human MKN28 cell growth in a cell viability assay.

MeWo = type: functional, cell-based; conditions: Homo sapiens;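 further: growth inhibition of MeWo cells, determined by a cell viability readout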
Description: SANGER: Inhibition of human Mewo cell growth in a cell viability assay.

NCI-H1563 = type: functional, cell-based; conditions: Homo sapiens;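 further: growth inhibition of human NCI-H1563 cells, read out with a cell viability assay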
Description: SANGER: Inhibition of human NCI-H1563 cell growth in a cell viability assay.

NCI-H1993 = type: functional, cell-based; conditions: Homo sapiens;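 further: growth inhibition of the cancer cell line, assessed with a cell viability assay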
Description: SANGER: Inhibition of human NCI-H1993 cell growth in a cell viability assay.

NCI-H460 = type: functional, cell-based; conditions: Homo sapiens;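 further: cell viability assay scoring growth inhibition of human NCI-H460 cells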
Description: SANGER: Inhibition of human NCI-H460 cell growth in a cell viability assay.

NCI-H522 = type: functional, cell-based; conditions: Homo sapiens;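 further: cell viability assay measuring growth inhibition of human NCI-H522 cells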
Description: SANGER: Inhibition of human NCI-H522 cell growth in a cell viability assay.

NCI-H630 = type: functional, cell-based; conditions: Homo sapiens;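 further: growth inhibition of NCI-H630 cells, read out with a cell viability assay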
Description: SANGER: Inhibition of human NCI-H630 cell growth in a cell viability assay.

NCI-H727 = type: functional, cell-based; conditions: Homo sapiens;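 further: growth inhibition of human NCI-H727 cells, read out with a cell viability assay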
Description: SANGER: Inhibition of human NCI-H727 cell growth in a cell viability assay.

NUGC-3 = type: functional, cell-based; conditions: Homo sapiens;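 further: growth inhibition of human NUGC-3 cells, read out with a cell viability assay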
Description: SANGER: Inhibition of human NUGC-3 cell growth in a cell viability assay.

NY = type: functional, cell-based; conditions: Homo sapiens
Description: SANGER: Inhibition of human NY cell growth in a cell viability assay.

PANC-08-13 = type: functional, cell-based; conditions: Homo sapiens;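 further: cell growth inhibition, measured with a cell viability assay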
Description: SANGER: Inhibition of human PANC-08-13 cell growth in a cell viability assay.

PC-14 = type: functional, cell-based; conditions: Homo sapiens;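 further: cell viability assay measuring inhibition of PC-14 cell growth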
Description: SANGER: Inhibition of human PC-14 cell growth in a cell viability assay.

RPMI-2650 = type: functional, cell-based; conditions: Homo sapiens
Description: SANGER: Inhibition of human RPMI-2650 cell growth in a cell viability assay.

SAS = type: functional, cell-based; conditions: Homo sapiens;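 further: growth inhibition of SAS cells, read out with a cell viability assay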
Description: SANGER: Inhibition of human SAS cell growth in a cell viability assay.

SK-MEL-28 = type: functional, cell-based; conditions: Homo sapiens;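 further: growth inhibition of human SK-MEL-28 cells, read out with a cell viability assay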
Description: SANGER: Inhibition of human SK-MEL-28 cell growth in a cell viability assay.

SNU-423 = type: functional, cell-based; conditions: Homo sapiens
Description: SANGER: Inhibition of human SNU-423 cell growth in a cell viability assay.

SW-620 = type: functional, cell-based; conditions: Homo sapiens;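 further: growth inhibition of human SW-620 cells, measured by a cell viability assay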
Description: SANGER: Inhibition of human SW620 cell growth in a cell viability assay.

T98G = type: functional, cell-based; conditions: Homo sapiens;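 further: growth inhibition of T98G cells, read out by a cell viability assay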
Description: SANGER: Inhibition of human T98G cell growth in a cell viability assay.

TCC-SUP = type: functional, cell-based; conditions: Homo sapiens;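 further: growth inhibition of TCC-SUP cells, read out with a cell viability assay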
Description: SANGER: Inhibition of human TCCSUP cell growth in a cell viability assay.

AGS = type: functional, cell-based; conditions: Homo sapiens;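 further: growth inhibition of AGS cells, determined with a cell viability assay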
Description: SANGER: Inhibition of human AGS cell growth in a cell viability assay.

BHY = type: functional, cell-based; conditions: Homo sapiens;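 further: cell growth inhibition read out by a viability assay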
Description: SANGER: Inhibition of human BHY cell growth in a cell viability assay.

BT-20 = type: functional, cell-based; conditions: Homo sapiens;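 further: cell viability assay measuring suppression of growth in human BT-20 cells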
Description: SANGER: Inhibition of human BT-20 cell growth in a cell viability assay.

CAL-12T = type: functional, cell-based; conditions: Homo sapiens;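 further: growth inhibition of human CAL-12T cells, read out with a cell viability assay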
Description: SANGER: Inhibition of human CAL-12T cell growth in a cell viability assay.

VMRC-RCZ = type: functional, cell-based; conditions: Homo sapiens;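 further: growth inhibition measured with a cell viability assay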
Description: SANGER: Inhibition of human VMRC-RCZ cell growth in a cell viability assay.

Hs-578T = type: functional, cell-based; conditions: Homo sapiens
Description: SANGER: Inhibition of human Hs-578-T cell growth in a cell viability assay.

SW626 = type: functional, cell-based; conditions: Homo sapiens;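 further: growth inhibition of SW626 cells, measured with a cell viability assay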
Description: SANGER: Inhibition of human SW626 cell growth in a cell viability assay.

`O=C1NC(=O)c2c1c(-c1ccccc1Cl)cc1[nH]c3ccc(O)cc3c21` showed an IC50 (Ca9-22) greater than 2 µM, an IC50 (D-336MG) greater than 2 µM and an IC50 (EGI-1) greater than 2 µM. For the same compound, the IC50 (G-401) was greater than 2 µM, the IC50 (G-402) was greater than 2 µM and the IC50 (GAMG) was greater than 2 µM. It also gave an IC50 (GP5d) greater than 2 µM, an IC50 (HCC1806) greater than 2 µM and an IC50 (HCC38) greater than 2 µM. It also gave an IC50 (HCC70) greater than 2 µM, an IC50 (HEC-1) greater than 2 µM and an IC50 (HPAF-II) greater than 2 µM. The IC50 (HT-3) was greater than 2 µM, the IC50 (HT55) was greater than 2 µM and the IC50 (HTC-C3) was 0.995 µM. For the same compound, the IC50 (JEG-3) was greater than 2 µM, the IC50 (KP-N-YN) was greater than 2 µM and the IC50 (KYSE-70 cell line) was greater than 2 µM. The IC50 (LCLC-103H cell line) was greater than 2 µM, the IC50 (LK-2) was greater than 2 µM and the IC50 (M059J) was greater than 2 µM. For the same compound, the IC50 (MDA-MB-361) was greater than 2 µM, the IC50 (MEL-HO) was greater than 2 µM and the IC50 (MG-63) was greater than 2 µM. It also gave an IC50 (MKN-28) greater than 2 µM, an IC50 (MeWo) greater than 2 µM and an IC50 (NCI-H1563) greater than 2 µM. For the same compound, the IC50 (NCI-H1993) was greater than 2 µM, the IC50 (NCI-H460) was greater than 2 µM and the IC50 (NCI-H522) was greater than 2 µM. The IC50 (NCI-H630) was 1.93 µM, the IC50 (NCI-H727) was greater than 2 µM and the IC50 (NUGC-3) was greater than 2 µM. It also gave an IC50 (NY) greater than 2 µM, an IC50 (PANC-08-13) greater than 2 µM and an IC50 (PC-14) greater than 2 µM. For the same compound, the IC50 (RPMI-2650) was greater than 2 µM, the IC50 (SAS) was greater than 2 µM and the IC50 (SK-MEL-28) was greater than 2 µM. It also gave an IC50 (SNU-423) greater than 2 µM, an IC50 (SW-620) greater than 2 µM and an IC50 (T98G) greater than 2 µM. The IC50 (TCC-SUP) was greater than 2 µM, the IC50 (AGS) was greater than 2 µM and the IC50 (BHY) was 1.15 µM. For the same compound, the IC50 (BT-20) was greater than 2 µM, the IC50 (CAL-12T) was greater than 2 µM and the IC50 (VMRC-RCZ) was greater than 2 µM.
In the case of `CN(C)CCOc1ccc(-c2nc(-c3ccncc3)c(-c3ccc4c(c3)CC/C4=N\O)[nH]2)cc1` [SB590885], the IC50 (Ca9-22) is reported as greater than 5 µM, the IC50 (EGI-1) is reported as greater than 5 µM and the IC50 (G-401) is reported as greater than 5 µM. For the same compound, the IC50 (G-402) was greater than 5 µM, the IC50 (GAMG) was greater than 5 µM and the IC50 (GP5d) was greater than 5 µM. The IC50 (HCC1806) was greater than 5 µM, the IC50 (HCC38) was greater than 5 µM and the IC50 (HCC70) was greater than 5 µM. The IC50 (HEC-1) was greater than 5 µM, the IC50 (HPAF-II) was greater than 5 µM and the IC50 (HT-3) was greater than 5 µM. For the same compound, the IC50 (HT55) was greater than 5 µM, the IC50 (HTC-C3) was greater than 5 µM and the IC50 (Hs-578T) was greater than 5 µM. It also gave an IC50 (JEG-3) greater than 5 µM, an IC50 (KP-N-YN) greater than 5 µM and an IC50 (KYSE-70 cell line) greater than 5 µM. It also gave an IC50 (LCLC-103H cell line) greater than 5 µM, an IC50 (LK-2) greater than 5 µM and an IC50 (M059J) greater than 5 µM. The IC50 (MDA-MB-361) was greater than 5 µM, the IC50 (MEL-HO) was 0.0693 µM and the IC50 (MG-63) was greater than 5 µM. The IC50 (MKN-28) was greater than 5 µM, the IC50 (MeWo) was greater than 5 µM and the IC50 (NCI-H1563) was greater than 5 µM. The IC50 (NCI-H1993) was greater than 5 µM, the IC50 (NCI-H460) was greater than 5 µM and the IC50 (NCI-H522) was greater than 5 µM. It also gave an IC50 (NCI-H630) greater than 5 µM, an IC50 (NCI-H727) greater than 5 µM and an IC50 (NUGC-3) greater than 5 µM. The IC50 (NY) was greater than 5 µM, the IC50 (PANC-08-13) was greater than 5 µM and the IC50 (PC-14) was greater than 5 µM. It also gave an IC50 (RPMI-2650) greater than 5 µM, an IC50 (SAS) greater than 5 µM and an IC50 (SNU-423) greater than 5 µM. It also gave an IC50 (SW-620) greater than 5 µM, an IC50 (SW626) greater than 5 µM and an IC50 (T98G) greater than 5 µM. For the same compound, the IC50 (TCC-SUP) was greater than 5 µM, the IC50 (AGS) was greater than 5 µM and the IC50 (BHY) was greater than 5 µM. For the same compound, the IC50 (BT-20) was greater than 5 µM, the IC50 (CAL-12T) was greater than 5 µM and the IC50 (VMRC-RCZ) was greater than 5 µM.
`CS(=O)(=O)N1CCN(Cc2cc3nc(-c4cccc5[nH]ncc45)nc(N4CCOCC4)c3s2)CC1` [PICTILISIB] gave an IC50 (Ca9-22) greater than 4 µM, an IC50 (EGI-1) of 1.85 µM and an IC50 (G-401) of 1.62 µM. It also gave an IC50 (G-402) of 1.9 µM, an IC50 (GAMG) of 0.371 µM and an IC50 (GP5d) greater than 4 µM. The IC50 (HCC1806) was greater than 4 µM, the IC50 (HCC38) was greater than 4 µM and the IC50 (HCC70) was 2.87 µM. The IC50 (HEC-1) was greater than 4 µM, the IC50 (HPAF-II) was 3.1 µM and the IC50 (HT-3) was 2.49 µM. The IC50 (HT55) was greater than 4 µM, the IC50 (HTC-C3) was 3.29 µM and the IC50 (Hs-578T) was 1.2 µM. It also gave an IC50 (JEG-3) greater than 4 µM, an IC50 (KP-N-YN) greater than 4 µM and an IC50 (KYSE-70 cell line) greater than 4 µM. It also gave an IC50 (LCLC-103H cell line) greater than 4 µM, an IC50 (LK-2) greater than 4 µM and an IC50 (M059J) greater than 4 µM. For the same compound, the IC50 (MDA-MB-361) was 0.439 µM, the IC50 (MEL-HO) was 2.68 µM and the IC50 (MG-63) was 0.541 µM. For the same compound, the IC50 (MKN-28) was greater than 4 µM, the IC50 (MeWo) was 3.42 µM and the IC50 (NCI-H1563) was 0.916 µM. The IC50 (NCI-H1993) was greater than 4 µM, the IC50 (NCI-H460) was greater than 4 µM and the IC50 (NCI-H522) was greater than 4 µM. It also gave an IC50 (NCI-H630) greater than 4 µM, an IC50 (NCI-H727) greater than 4 µM and an IC50 (NUGC-3) greater than 4 µM. It also gave an IC50 (NY) greater than 4 µM, an IC50 (PANC-08-13) greater than 4 µM and an IC50 (PC-14) of 3.73 µM. It also gave an IC50 (RPMI-2650) of 3.61 µM, an IC50 (SAS) greater than 4 µM and an IC50 (SK-MEL-28) of 1.56 µM. It also gave an IC50 (SNU-423) of 2.4 µM, an IC50 (SW-620) greater than 4 µM and an IC50 (SW626) greater than 4 µM. The IC50 (T98G) was 1.99 µM, the IC50 (TCC-SUP) was greater than 4 µM and the IC50 (AGS) was 3.62 µM. It also gave an IC50 (BHY) of 3.26 µM, an IC50 (BT-20) of 1.69 µM and an IC50 (CAL-12T) greater than 4 µM. It also gave an IC50 (VMRC-RCZ) greater than 4 µM.
Work on `NC1(c2ccc(-c3nc4ccn5c(=O)[nH]nc5c4cc3-c3ccccc3)cc2)CCC1` [MK-2206] yielded an IC50 (Ca9-22) greater than 4 µM, an IC50 (EGI-1) greater than 4 µM and an IC50 (G-401) of 1.3 µM. The IC50 (G-402) was 3.71 µM, the IC50 (GAMG) was 2.24 µM and the IC50 (GP5d) was greater than 4 µM. For the same compound, the IC50 (HCC1806) was greater than 4 µM, the IC50 (HCC38) was greater than 4 µM and the IC50 (HCC70) was 0.598 µM. The IC50 (HEC-1) was greater than 4 µM, the IC50 (HPAF-II) was greater than 4 µM and the IC50 (HT-3) was greater than 4 µM. It also gave an IC50 (HT55) greater than 4 µM, an IC50 (HTC-C3) greater than 4 µM and an IC50 (Hs-578T) of 2.11 µM. For the same compound, the IC50 (JEG-3) was greater than 4 µM, the IC50 (KP-N-YN) was greater than 4 µM and the IC50 (KYSE-70 cell line) was greater than 4 µM. For the same compound, the IC50 (LCLC-103H cell line) was greater than 4 µM, the IC50 (LK-2) was greater than 4 µM and the IC50 (M059J) was greater than 4 µM. For the same compound, the IC50 (MDA-MB-361) was 0.578 µM, the IC50 (MEL-HO) was greater than 4 µM and the IC50 (MG-63) was greater than 4 µM. The IC50 (MeWo) was greater than 4 µM, the IC50 (NCI-H1563) was 0.482 µM and the IC50 (NCI-H1993) was greater than 4 µM. The IC50 (NCI-H460) was greater than 4 µM, the IC50 (NCI-H522) was greater than 4 µM and the IC50 (NCI-H630) was greater than 4 µM. The IC50 (NCI-H727) was greater than 4 µM, the IC50 (NUGC-3) was greater than 4 µM and the IC50 (NY) was greater than 4 µM. For the same compound, the IC50 (PANC-08-13) was greater than 4 µM, the IC50 (PC-14) was greater than 4 µM and the IC50 (RPMI-2650) was greater than 4 µM. The IC50 (SAS) was greater than 4 µM, the IC50 (SNU-423) was 2.89 µM and the IC50 (SW-620) was greater than 4 µM. It also gave an IC50 (SW626) greater than 4 µM, an IC50 (T98G) greater than 4 µM and an IC50 (TCC-SUP) greater than 4 µM. It also gave an IC50 (AGS) of 2.72 µM, an IC50 (BHY) greater than 4 µM and an IC50 (BT-20) greater than 4 µM. It also gave an IC50 (CAL-12T) greater than 4 µM and an IC50 (VMRC-RCZ) greater than 4 µM.
